Test results: patent US20260091147A1, “METHOD FOR DETECTING INNATE IMMUNE ACTION IN VIVO USING GPR84-PET” (The Board of Trustees of the Leland Standford Junior …, priority 2023, published 2026)

Experiments:
[1] = healthy rhesus macaque, n=1
Experimental: The animal was anesthetized in the home cage with Telazol and transported to the PET facility, where the subject was intubated for mechanical ventilation; anesthesia was continued with isoflurane and maintained throughout the duration of the PET scan. A venous catheter was inserted into one hind limb and the monkey was placed on the PET gantry with its head secured to prevent motion artifacts. […] Emission data were collected beginning with the injection and continued for 60 minutes. Vitals (HR, SPO2, EtCO2 and respiratory rate) were collected for the entire duration of the scan. Data were corrected for attenuation and scatter and reconstructed using the three-dimensional-maximum a priori method (3D MAP algorithm). A ROI was defined for the whole brain on multiple planes by using a summed image. The volumetric ROI was then applied to a full dynamic data set to generate a TAC.

[2] = target: T1, GPR84 (Mus musculus, UniProt Q8CIM5); assay: Ex vivo autoradiography of brain sections from LPS-treated mice; format: in vivo
T1 construct: tissue Jackson Laboratories; host or cells: female C57BL/6J mice (LPS, saline, EAE or naive): brain, spinal cord and peripheral organs
T1 sequence (Q8CIM5 whole entry): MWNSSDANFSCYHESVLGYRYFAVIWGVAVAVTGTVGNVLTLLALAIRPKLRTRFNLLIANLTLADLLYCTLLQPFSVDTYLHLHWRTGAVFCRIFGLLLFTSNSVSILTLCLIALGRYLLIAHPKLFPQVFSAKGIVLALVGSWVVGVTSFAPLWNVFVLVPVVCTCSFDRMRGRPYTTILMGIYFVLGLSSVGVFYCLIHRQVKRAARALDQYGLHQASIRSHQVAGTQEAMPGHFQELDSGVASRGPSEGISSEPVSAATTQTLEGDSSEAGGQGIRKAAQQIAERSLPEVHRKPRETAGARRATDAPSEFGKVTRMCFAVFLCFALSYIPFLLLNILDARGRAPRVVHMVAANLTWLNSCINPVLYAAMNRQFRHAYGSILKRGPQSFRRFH
Experimental: To determine KD of GLPG38, a competitive binding assay was performed using a membrane preparation from cells expressing GPR84-Gi in addition to [^3H]G9543, a known GPR84 antagonist. [^11C]GLPG38 was then radiosynthesized via [^11C]methylation of desmethyl precursor using [^11C]methyl iodide. Binding specificity of [^11C]GLPG38 was assessed using human GPR84-stably-expressing human embryonic kidney cells (HEK-293) versus control HEK-293 cells. For animal studies, sepsis was induced in female C57BL/6J mice via intraperitoneal injection of lipopolysaccharide (LPS, 10 mg/kg); vehicle-treated mice were injected with saline alone. Dynamic 60 min PET/CT imaging was performed 24 hr following LPS-administration using [^11C]GLPG38. Subsequently, mice were perfused with PBS to remove blood, and radioactive signal was assessed in CNS and peripheral tissues via gamma counting. Ex vivo autoradiography of sagittal mouse brain sections was conducted to obtain high resolution images of [^11C]GLPG38 binding. To investigate alterations in GPR84 mRNA expression, quantitative polymerase-chain reaction was performed using mouse brain tissue and human monocyte-derived macrophage cells stimulated with LPS 24 hr prior to RNA extraction.
Ex vivo Audoradiography Confirms ^11C-MGX-10S Specificity.

[3] = target: T1, GPR84; assay: Dynamic PET/CT in EAE vs naive mice, spinal cord time activity curves; format: in vivo
Experimental: 10-week old female C57BL/6 mice were induced with EAE using kits from Hooke Laboratories Inc. (cat #EK2110; Lawrence, MA). After anesthetizing mice with isoflurane gas (2.0-3.0% for induction and 1.5-2.5% for maintenance), they were inoculated with myelin oligodendrocyte glycoprotein (MOG35-55) in complete Freund's adjuvant (CFA) (0.2 mL per mouse, S.C.), followed by two pertussis toxin (PTX) injections (110 ng per injection, I.P., 1 and 24 h post-MOG injection). All mice were weighed and scored daily in the morning from day 8 onwards according to standard EAE scoring systems: 0, no paralysis; 1, loss of tail tone; 2, hind limb weakness or paresis; 3, hind limb paralysis; 4, complete hind leg and partial front leg paralysis. EAE mice were given supplemental food and fluids as necessary.
On days 15-16 after EAE induction, mice were catheterized and placed on the 4-mouse scanning bed of the Sofie GNEXT PET/CT scanner. Mice were injected with a radiotracer bolus of 130-170 μCi of ^18F-MGX-110S for a 60-min dynamic PET scan followed by CT. Scans were reconstructed from list mode into 19 frames (4×15 s, 4×60 s, 11×300 s) using OSEM3D reconstruction with 3 iterations and 24 subsets. Brain analysis was performed using a semi-automated brain atlas on VivoQuant software (2020 version) and spinal cords were manually drawn as previously described (JoVE).
Radiosynthesis of ^18F-MGX-110S was achieved by copper-mediated fluorination of a Bpin precursor in a mixture of dimethylacetamide at 130° C. for 20 min. C57BL/6 mice were induced with EAE using myelin oligodendrite glycoprotein (MOG35-55) emulsified in complete Freund's adjuvant and weighed/scored daily for disease severity. Expression of Gpr84 and Tspo was assessed in EAE (n=10-16 mice of low and high disease severities) versus naïve mice (n=5) using quantitative polymerase chain reaction (qPCR) of CNS tissues. In vivo kinetics, spatial distribution, and BBB permeability of ^18F-MGX-110S was assessed via 60-min dynamic PET/CT imaging of naïve C57BL/6 (n=3) and high scoring EAE mice (n=3). Ex vivo gamma counting of tissues of interest was conducted using naïve (n=8) and EAE (n=8) mice 60-min post-tracer injection. Lastly, EAE (n=3) and naïve (n=4) mice were injected with ^18F-GE180 and dissected 60 min later for gamma counting as a comparison.

| cervical/thoracic spinal cord signal at 60 min, EAE mice ([3]; high scoring EAE, n=3) | lumbar spinal cord signal at 60 min, EAE mice ([3]; high scoring EAE, n=3, p=0.0206) | cervical/thoracic spinal cord signal at 60 min, naive mice ([3]; n=3) | lumbar spinal cord signal at 60 min, naive mice ([3]; n=3) | Compound | peak whole-brain uptake at 4 minutes post injection [1] | whole-brain level after washout over 60 min [1] | tracer binding in LPS brain sections after pre-blocking with GLPG1205 ([2]; GLPG1205 5 mg/kg ([11C]GLPG38) or 1 mg/kg (11C-MGX-10S)) | tracer binding in brain sections, LPS-treated vs vehicle mice ([2]; mouse, in vivo) |
| --- | --- | --- | --- | --- | --- | --- | --- | --- |
|  |  |  |  | Cc1cc2c(cc1O[11CH3])CCn1c-2c(C)c(OC[C@@H]2COCCO2)cc1=O [[^11C]GLPG38] | 3.3 SUV | 1.47 SUV | substantial reduction | marked increase |
| 4.54±1.16 % ID/g | 7.08±1.05 % ID/g | 3.21±0.42 % ID/g | 4.13±0.79 % ID/g | O=c1nc(OC[C@@H]2COCCO2)cc2n1CCc1cc([18F])ccc1-2 [^18F-MGX-110S] |  |  |  |  |
